PubChem BioAssay AID1845205 (Molecular Pharmacology Branch, DTP, NCI, 2023)

System: MPNST multicellular tumor spheroids, viability % test/control
Assay: Anticancer human tumor MPNST cell line growth inhibition;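 note: spheroids exposed to agents for seven days after three days of growth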;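 for viability, T/C: luminescence signal used as surrogate for viable cell amount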
Conditions: for IC50: curve of first compound; for viability, T/C: stronger effect = lower value
Method in brief: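 Complex spheroids of malignant cells with endothelial cells and mesenchymal stem cells; agents alone or combined, from near clinical Cmax (or 10 microM if unknown) down in half-log steps, 0.25% DMSO final.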

[1] = second compound 30 pM, first compound 0.0316 µM
[2] = second compound 30 pM, first compound 0.1 µM
[3] = second compound 30 pM, first compound 0.316 µM
[4] = second compound 30 pM, first compound 1 µM
[5] = second compound 30 pM, first compound 3.16 µM
[6] = second compound 30 pM, first compound 10 µM
[7] = second compound 94.9 pM, first compound 0.0316 µM
[8] = second compound 94.9 pM, first compound 0.1 µM
[9] = second compound 94.9 pM, first compound 0.316 µM
[10] = second compound 94.9 pM, first compound 1 µM
[11] = second compound 94.9 pM, first compound 3.16 µM
[12] = second compound 94.9 pM, first compound 10 µM
[13] = second compound 0.0003 µM, first compound 0.0316 µM
[14] = second compound 0.0003 µM, first compound 0.1 µM
[15] = second compound 0.0003 µM, first compound 0.316 µM
[16] = second compound 0.0003 µM, first compound 1 µM
[17] = second compound 0.0003 µM, first compound 3.16 µM
[18] = second compound 0.0003 µM, first compound 10 µM
[19] = second compound 0.000949 µM, first compound 0.0316 µM
[20] = second compound 0.000949 µM, first compound 0.1 µM
[21] = second compound 0.000949 µM, first compound 0.316 µM
[22] = second compound 0.000949 µM, first compound 1 µM
[23] = second compound 0.000949 µM, first compound 3.16 µM
[24] = second compound 0.000949 µM, first compound 10 µM
[25] = second compound 0.003 µM, first compound 0.0316 µM
[26] = second compound 0.003 µM, first compound 0.1 µM
[27] = second compound 0.003 µM, first compound 0.316 µM
[28] = second compound 0.003 µM, first compound 1 µM
[29] = second compound 0.003 µM, first compound 3.16 µM
[30] = second compound 0.003 µM, first compound 10 µM
[31] = second compound 1 µM, first compound 0.00949 µM
[32] = second compound 1 µM, first compound 0.03 µM
[33] = second compound 1 µM, first compound 0.0949 µM
[34] = second compound 1 µM, first compound 0.3 µM
[35] = second compound 1 µM, first compound 0.949 µM
[36] = second compound 1 µM, first compound 3 µM
[37] = second compound 3.16 µM, first compound 0.00949 µM
[38] = second compound 3.16 µM, first compound 0.03 µM
[39] = second compound 3.16 µM, first compound 0.0949 µM
[40] = second compound 3.16 µM, first compound 0.3 µM
[41] = second compound 3.16 µM, first compound 0.949 µM
[42] = second compound 3.16 µM, first compound 3 µM
[43] = second compound 10 µM, first compound 0.00949 µM
[44] = second compound 10 µM, first compound 0.03 µM
[45] = second compound 10 µM, first compound 0.0949 µM
[46] = second compound 10 µM, first compound 0.3 µM
[47] = second compound 10 µM, first compound 0.949 µM
[48] = second compound 10 µM, first compound 3 µM
[49] = second compound 31.6 µM, first compound 0.00949 µM
[50] = second compound 31.6 µM, first compound 0.03 µM
[51] = second compound 31.6 µM, first compound 0.0949 µM
[52] = second compound 31.6 µM, first compound 0.3 µM
[53] = second compound 31.6 µM, first compound 0.949 µM
[54] = second compound 31.6 µM, first compound 3 µM
[55] = second compound 100 µM, first compound 0.00949 µM
[56] = second compound 100 µM, first compound 0.03 µM
[57] = second compound 100 µM, first compound 0.0949 µM
[58] = second compound 100 µM, first compound 0.3 µM
[59] = second compound 100 µM, first compound 0.949 µM
[60] = second compound 100 µM, first compound 3 µM

## CC(C)n1c(=O)n(C)c2cnc3cc(F)c(-c4ccc(OCCCN5CCCCC5)nc4)cc3c21 + COc1cc2c(cc1O)CCNC21CSC2c3c(OC(C)=O)c(C)c4c(c3C(COC1=O)N1C(O)C3Cc5cc(C)c(OC)c(O)c5C(C21)N3C)OCO4
Second compound 30 pM
  IC50: > 10 µM
Second compound 94.9 pM
  IC50: > 10 µM
Second compound 0.0003 µM
  IC50: > 10 µM
Second compound 0.000949 µM
  IC50: < 0.0316 µM
Second compound 0.003 µM
  IC50: < 0.0316 µM
[1]
  viability, T/C: 94.6%
[2]
  viability, T/C: 76.6%
[3]
  viability, T/C: 79.8%
[4]
  viability, T/C: 135%
[5]
  viability, T/C: 110%
[6]
  viability, T/C: 72.2%
[7]
  viability, T/C: 72.3%
[8]
  viability, T/C: 68.9%
[9]
  viability, T/C: 79.3%
[10]
  viability, T/C: 64.6%
[11]
  viability, T/C: 63.5%
[12]
  viability, T/C: 59.3%
[13]
  viability, T/C: 55.8%
[14]
  viability, T/C: 47.3%
[15]
  viability, T/C: 61.1%
[16]
  viability, T/C: 67.5%
[17]
  viability, T/C: 52.5%
[18]
  viability, T/C: 40.8%
[19]
  viability, T/C: 47.2%
[20]
  viability, T/C: 46.6%
[21]
  viability, T/C: 45.5%
[22]
  viability, T/C: 48.1%
[23]
  viability, T/C: 45.2%
[24]
  viability, T/C: 37.1%
[25]
  viability, T/C: 13.8%
[26]
  viability, T/C: 13.6%
[27]
  viability, T/C: 11.6%
[28]
  viability, T/C: 10.3%
[29]
  viability, T/C: 10%
[30]
  viability, T/C: 6.09%

## COc1ccc([C@@H](O)c2cc(-c3ncnc4cc(N5CCOCC5)ccc34)c(F)cc2Cl)nn1 + COc1cc2c(cc1O)CCNC21CSC2c3c(OC(C)=O)c(C)c4c(c3C(COC1=O)N1C(O)C3Cc5cc(C)c(OC)c(O)c5C(C21)N3C)OCO4
Second compound 30 pM
  IC50: 0.171 µM
Second compound 94.9 pM
  IC50: 0.531 µM
Second compound 0.0003 µM
  IC50: 0.645 µM
Second compound 0.000949 µM
  IC50: 0.174 µM
Second compound 0.003 µM
  IC50: < 0.0316 µM
[1]
  viability, T/C: 97.1%
[2]
  viability, T/C: 72%
[3]
  viability, T/C: 24.1%
[4]
  viability, T/C: 12.8%
[5]
  viability, T/C: 5.82%
[6]
  viability, T/C: 3.35%
[7]
  viability, T/C: 113%
[8]
  viability, T/C: 74.7%
[9]
  viability, T/C: 70.9%
[10]
  viability, T/C: 39.6%
[11]
  viability, T/C: 8.1%
[12]
  viability, T/C: 3.63%
[13]
  viability, T/C: 89.4%
[14]
  viability, T/C: 70.9%
[15]
  viability, T/C: 92.8%
[16]
  viability, T/C: 28.8%
[17]
  viability, T/C: 9.77%
[18]
  viability, T/C: 2.97%
[19]
  viability, T/C: 84.4%
[20]
  viability, T/C: 48.4%
[21]
  viability, T/C: 55.4%
[22]
  viability, T/C: 14.4%
[23]
  viability, T/C: 11.7%
[24]
  viability, T/C: 0.94%
[25]
  viability, T/C: 15.7%
[26]
  viability, T/C: 16.1%
[27]
  viability, T/C: 8.56%
[28]
  viability, T/C: 4.27%
[29]
  viability, T/C: 2.63%
[30]
  viability, T/C: 0.51%

## CNCc1ccc(-c2cc(-c3nc(-c4ccc(S(=O)(=O)C(C)C)cc4)cnc3N)on2)cc1 + Cn1nnc2c(C(N)=O)ncn2c1=O
Second compound 1 µM
  IC50: > 3 µM
Second compound 3.16 µM
  IC50: > 3 µM
Second compound 10 µM
  IC50: > 3 µM
Second compound 31.6 µM
  IC50: > 3 µM
Second compound 100 µM
  IC50: > 3 µM
[31]
  viability, T/C: 110%
[32]
  viability, T/C: 102%
[33]
  viability, T/C: 83%
[34]
  viability, T/C: 77.9%
[35]
  viability, T/C: 63.1%
[36]
  viability, T/C: 63.8%
[37]
  viability, T/C: 125%
[38]
  viability, T/C: 120%
[39]
  viability, T/C: 97.9%
[40]
  viability, T/C: 75.3%
[41]
  viability, T/C: 64.8%
[42]
  viability, T/C: 61.1%
[43]
  viability, T/C: 95.6%
[44]
  viability, T/C: 114%
[45]
  viability, T/C: 98.5%
[46]
  viability, T/C: 74.8%
[47]
  viability, T/C: 71.8%
[48]
  viability, T/C: 69.5%
[49]
  viability, T/C: 105%
[50]
  viability, T/C: 81.1%
[51]
  viability, T/C: 79.8%
[52]
  viability, T/C: 66.6%
[53]
  viability, T/C: 58%
[54]
  viability, T/C: 64.3%
[55]
  viability, T/C: 92.1%
[56]
  viability, T/C: 95.7%
[57]
  viability, T/C: 83%
[58]
  viability, T/C: 61.4%
[59]
  viability, T/C: 58.5%
[60]
  viability, T/C: 61.7%

## Cn1ncnc1[C@H]1c2n[nH]c(=O)c3cc(F)cc(c23)N[C@@H]1c1ccc(F)cc1 + Cn1nnc2c(C(N)=O)ncn2c1=O
Second compound 1 µM
  IC50: 2.76 µM
Second compound 3.16 µM
  IC50: > 3 µM
Second compound 10 µM
  IC50: > 3 µM
Second compound 31.6 µM
  IC50: 0.505 µM
Second compound 100 µM
  IC50: 0.027 µM
[31]
  viability, T/C: 93.1%
[32]
  viability, T/C: 77.1%
[33]
  viability, T/C: 70.3%
[34]
  viability, T/C: 58.9%
[35]
  viability, T/C: 52%
[36]
  viability, T/C: 50.8%
[37]
  viability, T/C: 77.7%
[38]
  viability, T/C: 74%
[39]
  viability, T/C: 74.2%
[40]
  viability, T/C: 55.2%
[41]
  viability, T/C: 53.7%
[42]
  viability, T/C: 52.7%
[43]
  viability, T/C: 79%
[44]
  viability, T/C: 71.6%
[45]
  viability, T/C: 63.9%
[46]
  viability, T/C: 55.8%
[47]
  viability, T/C: 51.7%
[48]
  viability, T/C: 51.7%
[49]
  viability, T/C: 61.7%
[50]
  viability, T/C: 56%
[51]
  viability, T/C: 58.1%
[52]
  viability, T/C: 48.9%
[53]
  viability, T/C: 48.2%
[54]
  viability, T/C: 46.5%
[55]
  viability, T/C: 52.5%
[56]
  viability, T/C: 50%
[57]
  viability, T/C: 49%
[58]
  viability, T/C: 46.2%
[59]
  viability, T/C: 47.5%
[60]
  viability, T/C: 48.3%

## O=C(c1cc(Cc2n[nH]c(=O)c3ccccc23)ccc1F)N1CCN(C(=O)C2CC2)CC1 + Cn1nnc2c(C(N)=O)ncn2c1=O
Second compound 1 µM
  IC50: 17.7 µM
Second compound 3.16 µM
  IC50: 22.9 µM
Second compound 10 µM
  IC50: 26.4 µM
Second compound 31.6 µM
  IC50: 16.4 µM
Second compound 100 µM
  IC50: 2.85 µM
[33]
  viability, T/C: 70.9%
[34]
  viability, T/C: 77.9%
[35]
  viability, T/C: 82%
[36]
  viability, T/C: 71.9%
Second compound 1 µM, first compound 9.49 µM
  viability, T/C: 56.1%
Second compound 1 µM, first compound 30 µM
  viability, T/C: 44.9%
[39]
  viability, T/C: 83.8%
[40]
  viability, T/C: 80.2%
[41]
  viability, T/C: 92.1%
[42]
  viability, T/C: 77.2%
Second compound 3.16 µM, first compound 9.49 µM
  viability, T/C: 65.3%
Second compound 3.16 µM, first compound 30 µM
  viability, T/C: 45.4%
[45]
  viability, T/C: 118%
[46]
  viability, T/C: 95.2%
[47]
  viability, T/C: 87.6%
[48]
  viability, T/C: 66.2%
Second compound 10 µM, first compound 9.49 µM
  viability, T/C: 60.9%
Second compound 10 µM, first compound 30 µM
  viability, T/C: 48.1%
[51]
  viability, T/C: 82.6%
[52]
  viability, T/C: 107%
[53]
  viability, T/C: 80.2%
[54]
  viability, T/C: 70.3%
Second compound 31.6 µM, first compound 9.49 µM
  viability, T/C: 54.1%
Second compound 31.6 µM, first compound 30 µM
  viability, T/C: 45.8%
[57]
  viability, T/C: 83.4%
[58]
  viability, T/C: 85.6%
[59]
  viability, T/C: 72.6%
[60]
  viability, T/C: 49.2%
Second compound 100 µM, first compound 9.49 µM
  viability, T/C: 46.1%
Second compound 100 µM, first compound 30 µM
  viability, T/C: 44.7%
